Laboratory results reported in patent publication US7851474B2, “Dipiperazinyl ketones and related analogues” (Neurogen Corporation, priority 2005, dated 2010).

Target: T1, chimeric human H3 receptor (Homo sapiens, UniProt Q9Y5N1, E19D)
T1 construct: made in house; host or cells: Sf9 insect cells (baculovirus infection); P2 membrane preparation
Assay: Chimeric human H3 receptor GTP binding assay (agonist-stimulated GTP-gamma35S binding, Example 7)
Assay type: biochemical
Settings: Table II; assay of Example 7; "*" in Ki; read-out: Ki
Summary of the method: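 IC50 values come from non-linear regression of dose-response curves of filter-bound GTP-gamma^35S, counted by scintillation. Membranes were from infected Sf9 cells carrying receptor plus G-protein subunits, 35 μg/tube, with 10 μM GDP present.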

T1 sequence (Q9Y5N1 with tags, fused parts or gaps E19D): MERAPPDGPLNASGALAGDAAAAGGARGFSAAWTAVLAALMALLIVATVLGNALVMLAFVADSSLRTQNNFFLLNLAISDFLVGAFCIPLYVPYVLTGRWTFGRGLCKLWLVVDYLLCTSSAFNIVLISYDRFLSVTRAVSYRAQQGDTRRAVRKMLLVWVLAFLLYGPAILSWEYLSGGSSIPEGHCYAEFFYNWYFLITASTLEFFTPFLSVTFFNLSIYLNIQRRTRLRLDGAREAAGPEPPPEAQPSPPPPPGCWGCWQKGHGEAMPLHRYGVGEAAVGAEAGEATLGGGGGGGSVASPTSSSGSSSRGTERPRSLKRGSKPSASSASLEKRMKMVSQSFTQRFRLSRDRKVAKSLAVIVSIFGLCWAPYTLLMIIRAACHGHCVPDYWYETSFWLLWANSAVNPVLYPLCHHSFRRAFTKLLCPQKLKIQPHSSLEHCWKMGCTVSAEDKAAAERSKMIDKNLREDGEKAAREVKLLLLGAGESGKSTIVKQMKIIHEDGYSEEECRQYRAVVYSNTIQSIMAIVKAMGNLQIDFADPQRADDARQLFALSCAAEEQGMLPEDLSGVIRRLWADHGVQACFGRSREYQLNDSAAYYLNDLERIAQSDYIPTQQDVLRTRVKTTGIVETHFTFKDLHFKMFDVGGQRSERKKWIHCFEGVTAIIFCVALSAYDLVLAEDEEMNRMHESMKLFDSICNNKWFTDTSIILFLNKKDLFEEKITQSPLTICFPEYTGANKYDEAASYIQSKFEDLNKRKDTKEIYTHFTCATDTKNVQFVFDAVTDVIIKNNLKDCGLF

| SMILES | Ki [nM] |
| --- | --- |
| O=C(CN1CCN(c2ccc(-c3ccc4c(c3)OCCO4)nn2)CC1)N1CCN(C2CCC2)CC1 [Compound 1035, 3-{4-[2-(4-cyclobutylpiperazin-1-yl)-2-oxoethyl]piperazin-1-yl}-6-(2,3-dihydro-1,4-benzodioxin-6-yl)pyridazine] | < 1000 |
| COc1ccc(-c2ccc(N3CCN(CC(=O)N4CCN(C5CCC5)CC4)CC3)nn2)c(C)c1 [Compound 1038, 3-{4-[2-(4-cyclobutylpiperazin-1-yl)-2-oxoethyl]piperazin-1-yl}-6-(4-methoxy-2-methylphenyl)pyridazine] | < 1000 |
| COc1ccccc1-c1ccc(N2CCN(CC(=O)N3CCN(C4CCC4)CC3)CC2)nn1 [Compound 1039, 3-{4-[2-(4-cyclobutylpiperazin-1-yl)-2-oxoethyl]piperazin-1-yl}-6-(2-methoxyphenyl) pyridazine] | < 1000 |
| COc1ccc(-c2ccc(N3CCN(CC(=O)N4CCN(C5CCC5)CC4)CC3)nn2)c(OC)c1 [Compound 1042, 3-{4-[2-(4-cyclobutylpiperazin-1-yl)-2-oxoethyl]piperazin-1-yl}-6-(2,4-dimethoxyphenyl) pyridazine] | < 1000 |
| CCOc1ccccc1-c1ccc(N2CCN(CC(=O)N3CCN(C4CCC4)CC3)CC2)nn1 [Compound 1043, 3-{4-[2-(4-cyclobutylpiperazin-1-yl)-2-oxoethyl]piperazin-1-yl}-6-(2-ethoxyphenyl)pyridazine] | < 1000 |
| COc1ccc(F)cc1-c1ccc(N2CCN(CC(=O)N3CCN(C4CCC4)CC3)CC2)nn1 [Compound 1045, 3-{4-[2-(4-cyclobutylpiperazin-1-yl)-2-oxoethyl]piperazin-1-yl}-6-(5-fluoro-2-methoxyphenyl) pyridazine] | < 1000 |
| COc1ccc(C)cc1-c1ccc(N2CCN(CC(=O)N3CCN(C4CCC4)CC3)CC2)nn1 [Compound 1046, 3-{4-[2-(4-cyclobutylpiperazin-1-yl)-2-oxoethyl]piperazin-1-yl}-6-(2-methoxy-5-methylphenyl) pyridazine] | < 1000 |

The next lines start with the values.

| Ki [nM] | SMILES |
| --- | --- |
| < 1000 | CCOc1ccc(-c2ccc(N3CCN(CC(=O)N4CCN(C5CCC5)CC4)CC3)nn2)cc1 [Compound 1034, 3-{4-[2-(4-cyclobutylpiperazin-1-yl)-2-oxoethyl]piperazin-1-yl}-6-(4-ethoxyphenyl)pyridazine] |
| < 1000 | COc1ccc(-c2ccc(N3CCN(CC(=O)N4CCN(C5CCC5)CC4)CC3)nn2)cc1C [Compound 1036, 3-{4-[2-(4-cyclobutylpiperazin-1-yl)-2-oxoethyl]piperazin-1-yl}-6-(4-methoxy-3-methylphenyl)pyridazine] |
| < 1000 | CCCOc1ccc(-c2ccc(N3CCN(CC(=O)N4CCN(C5CCC5)CC4)CC3)nn2)cc1 [Compound 1037, 3-{4-[2-(4-cyclobutylpiperazin-1-yl)-2-oxoethyl]piperazin-1-yl}-6-(4-propoxyphenyl) pyridazine] |
| < 1000 | COc1ccc(C(C)C)cc1-c1ccc(N2CCN(CC(=O)N3CCN(C4CCC4)CC3)CC2)nn1 [Compound 1040, 3-{4-[2-(4-cyclobutylpiperazin-1-yl)-2-oxoethyl]piperazin-1-yl}-6-(5-isopropyl-2-methoxyphenyl) pyridazine] |
| < 1000 | COc1ccc(OC)c(-c2ccc(N3CCN(CC(=O)N4CCN(C5CCC5)CC4)CC3)nn2)c1 [Compound 1041, 3-{4-[2-(4-cyclobutylpiperazin-1-yl)-2-oxoethyl]piperazin-1-yl}-6-(2,5-dimethoxyphenyl) pyridazine] |
| < 1000 | O=C(CN1CCN(c2ccc(-c3cccc4c3oc3ccccc34)nn2)CC1)N1CCN(C2CCC2)CC1 [Compound 1044, 3-{4-[2-(4-cyclobutylpiperazin-1-yl)-2-oxoethyl]piperazin-1-yl}-6-dibenzo[b,d]furan-4-ylpyridazine] |
| < 1000 | O=C(CN1CCN(c2ccc(-c3ccccc3Oc3ccccc3)nn2)CC1)N1CCN(C2CCC2)CC1 [Compound 1047, 3-{4-[2-(4-cyclobutylpiperazin-1-yl)-2-oxoethyl]piperazin-1-yl}-6-(2-phenoxyphenyl) pyridazine] |
